One test deals with BCL-2 (Homo sapiens (Human), UniProt P10415). In words: BCL-2 competition binding (fluorescence polarization) assay. The following applies: read-out: BCL2 IC50. Here is the method: Biological Example 1: BCL-2 Competition Binding (Fluorescence Polarization) Assay
The fluorescence-labeled 23 amino acid peptide BH3 was purchased from CalBiochem ([…]). […] This binding assay was performed in 96-well plate and with each assay contained 15 and 30 nM of labeled peptide and purified BCL-2 protein (purchased from R&D Systems, Inc). The assay buffer contained 20 mM Hepes (pH 7.0), 50 mM KCl, 5 mM MgCl2, 20 mM Na2MoO4, 0.1 mg/ml Bovine Gamma Globulin and 0.01% NP40. Compounds were diluted in DMSO and added to the final assay with concentration range from 20 μM to 2 nM. The polarization degree (mP) value was determined by BioTek Synergy II with background subtraction after 3 hours of incubation at room temperature. IC50 was calculated using Prism software with sigmoidal dose-response curve fitting. ABT-737 was used as reference compound. Such assays, carried out with a range of doses of test compounds, allowed the determination of an approximate IC50 value.
(Polarisation of emitted light reports the rotation of a fluorescent probe.)

Test [1] concerns BCL-2-dependent acute lymphoblastic leukemia (ALL) cell line RS4;11. In words: In vitro anti-proliferation assay (ATPlite luminescence) in RS4;11. The following applies: RS4;11 cells, about 72 hours, medium with 5% FBS or 10% normal human serum. The class given is cell-based. Here is the method:
Cell antiproliferation was assayed by PerkinElmer ATPlite™ Luminescence Assay System. Briefly, the various test cancer cell lines were plated at a density of about 1×10^4 cells per well in Costar 96-well plates, and were incubated with different concentrations of compounds for about 72 hours in medium supplemented with 5% FBS or 10% normal human serum (NHS). One lyophilized substrate solution vial was then reconstituted by adding 5 mL of substrate buffer solution, and was agitated gently until the solution was homogeneous. About 50 μL of mammalian cell lysis solution was added to 100 μL of cell suspension per well of a microplate, and the plate was shaken for about five minutes in an orbital shaker at 700 rpm. This procedure was used to lyse the cells and to stabilize the ATP. Next, 50 μL substrate solution was added to the wells and microplate was shaken for five minutes in an orbital shaker at 700 rpm. Finally, the luminescence was measured by a PerkinElmer TopCount® Microplate Scintillation Counter. Such assays, carried out with a range of doses of test compounds, allowed the determination of the cellular anti-antiproliferative IC50 of the compounds of the present invention.
Background: In ATP-based viability assays light output follows the ATP content of the culture.

[2] abbreviates: fluorescein-labeled BH3 peptide 15 nM, purified BCL-2 protein 30 nM, 3 hours incubation at room temperature.

Where a name gives a salt, the structure may show the parent alone. Read-outs that look alike come from different tables or passages of the source.

As usually defined, the IC50 is the point on the concentration scale where inhibition reaches its midpoint.

Chain of BCL-2 (P10415 whole entry): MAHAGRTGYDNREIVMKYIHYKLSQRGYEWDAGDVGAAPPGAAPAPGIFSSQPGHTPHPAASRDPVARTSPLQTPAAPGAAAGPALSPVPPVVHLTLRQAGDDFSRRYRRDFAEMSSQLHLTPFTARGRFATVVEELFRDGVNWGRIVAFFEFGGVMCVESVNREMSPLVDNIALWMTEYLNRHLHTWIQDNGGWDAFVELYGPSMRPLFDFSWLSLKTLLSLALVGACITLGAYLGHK

On to `CC1(C)CCC(CN2CCN(c3ccc(C(=O)NS(=O)(=O)c4ccc(NCC5CCOCC5)c([N+](=O)[O-])c4)c(N4CCCSc5nc6[nH]ccc6cc54)c3)CC2)=C(c2ccc(Cl)cc2)C1` [Example 27, 4-(4-((4′-chloro-5,5-dimethyl-3,4,5,6-tetrahydro-[1,1′-biphenyl]-2-yl)methyl)piperazin-1-yl)-2-(3,4-dihydro-2H-pyrrolo[3′,2′:5,6]pyrido[2,3-b][1,4]thiazepin-1(7H)-yl)-N-((3-nitro-4-(((tetrahydro-2H-pyran-4-yl)methyl)amino)phenyl)sulfonyl)benzamide], for which the 50% inhibitory concentration (IC50) on BCL-2 (setting [2]) came to 0.3 nM; in test [1] it was 21 nM.

With `CC1(C)CCC(CN2CCN(c3ccc(C(=O)NS(=O)(=O)c4ccc(NCC5CCOCC5)c([N+](=O)[O-])c4)c(N4CCOc5ccccc54)c3)CC2)=C(c2ccc(Cl)cc2)C1` [Example 33, 4-(4-[[2-(4-chlorophenyl)-4,4-dimethylcyclohex-1-en-1-yl]methyl]piperazin-1-yl)-2-(3,4-dihydro-2H-1,4-benzoxazin-4-yl)-N-(3-nitro-4-[[(oxan-4-yl)methyl]amino]benzenesulfonyl)benzamide], the IC50 at BCL-2 (setting [2]) was found to be 42.6 nM.

Take `CC1(C)CCC(CN2CCN(c3ccc(C(=O)NS(=O)(=O)c4ccc(NCC5CCOCC5)c([N+](=O)[O-])c4)c(N4CCOc5ccncc54)c3)CC2)=C(c2ccc(Cl)cc2)C1` [Example 34, 4-(4-[[2-(4-chlorophenyl)-4,4-dimethylcyclohex-1-en-1-yl]methyl]piperazin-1-yl)-N-[3-nitro-4-[(oxan-4-ylmethyl)amino]benzenesulfonyl]-2-[2H,3H-pyrido[4,3-b][1,4]oxazin-4-yl]benzamide]: the IC50 at BCL-2 (setting [2]) was found to be 122 nM.

Take `CC1(C)CCC(CN2CCN(c3ccc(C(=O)NS(=O)(=O)c4ccc(NCC5CCOCC5)c([N+](=O)[O-])c4)c(N4CCCOc5ncccc54)c3)CC2)=C(c2ccc(Cl)cc2)C1` [Example 35, 4-(4-[[2-(4-chlorophenyl)-4,4-dimethylcyclohex-1-en-1-yl]methyl]piperazin-1-yl)-N-[3-nitro-4-[(oxan-4-ylmethyl)amino]benzenesulfonyl]-2-[2H,3H,4H-pyrido[2,3-b][1,4]oxazepin-1-yl]benzamide]: at BCL-2 (setting [2]), the concentration for half-maximal inhibition (IC50) amounted to 27 nM.

The compound `CC1(C)CCC(CN2CCN(c3ccc(C(=O)NS(=O)(=O)c4ccc(NCC5CCOCC5)c([N+](=O)[O-])c4)c(N4CC(F)(F)COc5nc6[nH]ccc6cc54)c3)CC2)=C(c2ccc(Cl)cc2)C1` [Example 36, 4-(4-[[2-(4-chlorophenyl)-4,4-dimethylcyclohex-1-en-1-yl]methyl]piperazin-1-yl)-2-[12,12-difluoro-14-oxa-2,4,10-triazatricyclo[7.5.0.0^[3,7]]tetradeca-1(9),2,5,7-tetraen-10-yl]-N-(3-nitro-4-[[(oxan-4-yl)methyl]amino]benzenesulfonyl)benzamide] gave an IC50 in test [1] of 0.95 nM.

`CC1(C)CCC(CN2CCN(c3ccc(C(=O)NS(=O)(=O)c4ccc(NC[C@H]5COCCO5)c([N+](=O)[O-])c4)c(N4CCCOc5nc6[nH]ccc6cc54)c3)CC2)=C(c2ccc(O)cc2)C1` [Example 38, N-(4-[[(2S)-1,4-dioxan-2-ylmethyl]amino]-3-nitrobenzenesulfonyl)-4-(4-[[2-(4-hydroxyphenyl)-4,4-dimethylcyclohex-1-en-1-yl]methyl]piperazin-1-yl)-2-[14-oxa-2,4,10-triazatricyclo[7.5.0.0^[3,7]]tetradeca-1(9),2,5,7-tetraen-10-yl]benzamide]: the IC50 on BCL-2 amounted to 47 nM.

For the compound `CC1(C)CCC(CN2CCN(c3ccc(C(=O)NS(=O)(=O)c4ccc(NC[C@H]5COCCO5)c([N+](=O)[O-])c4)c(N4CCCOc5nc(N)ccc54)c3)CC2)=C(c2ccc(Cl)cc2)C1` [Example 39, 2-[7-amino-2H,3H,4H-pyrido[2,3-b][1,4]oxazepin-1-yl]-4-(4-[[2-(4-chlorophenyl)-4,4-dimethylcyclohex-1-en-1-yl]methyl]piperazin-1-yl)-N-(4-[[(2S)-1,4-dioxan-2-ylmethyl]amino]-3-nitrobenzenesulfonyl)benzamide], the half-maximal inhibitory concentration (IC50) at BCL-2 (setting [2]) worked out at 1.5 nM; in test [1], 544 nM.

For `CC1(C)CCC(CN2CCN(c3ccc(C(=O)NS(=O)(=O)c4ccc(NCC5CCOCC5)c([N+](=O)[O-])c4)c(N4CCC(c5ccccn5)Oc5nc6[nH]ccc6cc54)c3)CC2)=C(c2ccc(Cl)cc2)C1` (stereo not shown) [Example 40, 4-(4-[[2-(4-chlorophenyl)-4,4-dimethylcyclohex-1-en-1-yl]methyl]piperazin-1-yl)-N-[3-nitro-4-[(oxan-4-ylmethyl)amino]benzenesulfonyl]-2-[13-(pyridin-2-yl)-14-oxa-2,4,10-triazatricyclo[7.5.0.0^[3,7]]tetradeca-1(9),2,5,7-tetraen-10-yl]benzamide hydrochloride], half-maximal inhibition in test [1] (IC50) required 5.6 nM.

Take `CC1(C)CCC(CN2CCN(c3ccc(C(=O)NS(=O)(=O)c4ccc(NC[C@H]5COCCO5)c([N+](=O)[O-])c4)c(N4CCOCc5nc6[nH]ccc6cc54)c3)CC2)=C(c2ccc(Cl)cc2)C1` [Example 41, 4-(4-[[2-(4-chlorophenyl)-4,4-dimethylcyclohex-1-en-1-yl]methyl]piperazin-1-yl)-N-(4-[[(2S)-1,4-dioxan-2-ylmethyl]amino]-3-nitrobenzenesulfonyl)-2-[13-oxa-2,4,10-triazatricyclo[7.5.0.0^[3,7]]tetradeca-1(9),2,5,7-tetraen-10-yl]benzamide hydrochloride]: the IC50 stood at 0.1 nM at BCL-2 and 1.1 nM in test [1].

Regarding `CNc1ccc2c(n1)OCCCN2c1cc(N2CCN(CC3=C(c4ccc(Cl)cc4)CC(C)(C)CC3)CC2)ccc1C(=O)NS(=O)(=O)c1ccc(NC[C@H]2COCCO2)c([N+](=O)[O-])c1` [Example 42, 4-(4-[[2-(4-chlorophenyl)-4,4-dimethylcyclohex-1-en-1-yl]methyl]piperazin-1-yl)-N-(4-[[(2S)-1,4-dioxan-2-ylmethyl]amino]-3-nitrobenzenesulfonyl)-2-[7-(methylamino)-2H,3H,4H-pyrido[2,3-b][1,4]oxazepin-1-yl]benzamide hydrochloride], the figures for the IC50 (at BCL-2 (setting [2]); in test [1]) were 4.1 nM and more than 1000 nM, respectively.

On to `CC1(C)CCC(CN2CCN(c3ccc(C(=O)NS(=O)(=O)c4ccc(NCCN5CCN(CCOCCOCCNc6cccc7c6C(=O)N(C6CCC(=O)NC6=O)C7=O)CC5)c([N+](=O)[O-])c4)c(N4CCCOc5nc6[nH]ccc6cc54)c3)CC2)=C(c2ccc(Cl)cc2)C1` (stereo not shown) [Example 50, 4-(4-[[2-(4-chlorophenyl)-4,4-dimethylcyclohex-1-en-1-yl]methyl]piperazin-1-yl)-N-(4-[[2-(4-[2-[2-(2-[[2-(2,6-dioxopiperidin-3-yl)-1,3-dioxoisoindol-4-yl]amino]ethoxy)ethoxy]ethyl]piperazin-1-yl)ethyl]amino]-3-nitrobenzenesulfonyl)-2-[14-oxa-2,4,10-triazatricyclo[7.5.0.0^[3,7]]tetradeca-1(9),2,5,7-tetraen-10-yl]benzamide], for which the half-inhibitory concentration (IC50) is 0.6 nM at BCL-2 and 43 nM in test [1].

Turning to `CC1(C)CCC(CN2CCN(c3ccc(C(=O)NS(=O)(=O)c4ccc(NCCOCCOCCOCCOCCNc5cccc6c5C(=O)N(C5CCC(=O)NC5=O)C6=O)c([N+](=O)[O-])c4)c(N4CCCOc5nc6[nH]ccc6cc54)c3)CC2)=C(c2ccc(Cl)cc2)C1` (stereo not shown) [Example 51, 4-(4-[[2-(4-chlorophenyl)-4,4-dimethylcyclohex-1-en-1-yl]methyl]piperazin-1-yl)-N-[4-(15-[[2-(2,6-dioxopiperidin-3-yl)-1,3-dioxoisoindol-4-yl]amino]-4,7,10,13-tetraoxa-1-azapentadecan-1-yl)-3-nitrobenzenesulfonyl]-2-[14-oxa-2,4,10-triazatricyclo[7.5.0.0^[3,7]]tetradeca-1(9),2,5,7-tetraen-10-yl]benzamide], the IC50 on BCL-2 (setting [2]) worked out at 0.9 nM; in test [1], 62 nM.

As for `CC1(C)CCC(CN2CCN(c3ccc(C(=O)NS(=O)(=O)c4ccc(NC[C@H]5COCCO5)c([N+](=O)[O-])c4)c(N4C(=O)COc5nc6[nH]ccc6cc54)c3)CC2)=C(c2ccc(Cl)cc2)C1` [Example 76, 4-(4-[[2-(4-chlorophenyl)-4,4-dimethylcyclohex-1-en-1-yl]methyl]piperazin-1-yl)-N-(4-[[(2S)-1,4-dioxan-2-ylmethyl]amino]-3-nitrobenzenesulfonyl)-2-[11-oxo-13-oxa-2,4,10-triazatricyclo[7.4.0.0[3,7]]trideca-1(9),2,5,7-tetraen-10-yl]benzamide], in test [1], the IC50 was determined as 54 nM.

For the origin of these results see patent US12220419B2, “BCL-2 inhibitors” (Newave Pharmaceutical Inc., priority 2018, dated 2025).
